{"source": "patent US20080262097A1", "about": "“Formulations” (priority 2005, published 2008)", "assay_type_in_all_cases": "cell-based", "key": {"S. aureus ATCC 12606": {"tested_on": "S. aureus ATCC 12606", "test": "MBC assay", "details": "Staphylococcus aureus, ATCC12606", "experimental": "(§1) The staphylococci and enterococci were cultured and maintained on Mueller-Hinton Medium (agar and broth) at pH 7.2; they were incubated aerobically at 37° C. for 24 hours.\n(§2) This assay, normally carried out after an MIC assay, determines the minimum concentration of a compound that is lethal to the micro-organism being tested.\n(§3) These samples were then individually sub-cultured on non-selective agar medium, under the incubation conditions described above. Following incubation they were examined visually for bacterial growth."}, "S. aureus CPHL VISA Mu50": {"tested_on": "S. aureus CPHL VISA Mu50", "test": "MBC assay", "details": "Staphylococcus aureus", "experimental": "as §1, §2, §3"}, "S. aureus ATCC 12600-U": {"tested_on": "S. aureus ATCC 12600-U", "test": "MBC assay", "details": "Staphylococcus aureus, ATCC12600", "experimental": "as §1, §2, §3"}, "[1]": {"tested_on": "Staphylococcus auricularis ATCC 33753", "test": "MBC assay", "details": "ATCC33753", "experimental": "as §1, §2, §3"}, "S. aureus ATCC 12604": {"tested_on": "S. aureus ATCC 12604", "test": "MBC assay", "details": "Staphylococcus aureus, ATCC12604", "experimental": "as §1, §2, §3"}, "S. aureus CPHL EMRSA 17": {"tested_on": "S. aureus CPHL EMRSA 17", "test": "MBC assay", "details": "Staphylococcus aureus", "experimental": "as §1, §2, §3"}, "S. aureus ATCC 12602": {"tested_on": "S. aureus ATCC 12602", "test": "MBC assay", "details": "Staphylococcus aureus, ATCC12602", "experimental": "as §1, §2, §3"}, "S. aureus ATCC 12605": {"tested_on": "S. aureus ATCC 12605", "test": "MBC assay", "details": "Staphylococcus aureus, ATCC12605", "experimental": "as §1, §2, §3"}, "[2]": {"tested_on": "Staphylococcus capitis ATCC 27840", "test": "MBC assay", "details": "ATCC27840", "experimental": "as §1, §2, §3"}, "[3]": {"tested_on": "Staphylococcus hominis ATCC 27844", "test": "MBC assay", "details": "ATCC27844", "experimental": "as §1, §2, §3"}, "[4]": {"tested_on": "S. saprophyticus NCTC 7292", "test": "MBC assay", "details": "Staphylococcus saprophyticus, NCTC7292", "experimental": "as §1, §2, §3"}, "S. aureus ATCC 25923": {"tested_on": "S. aureus ATCC 25923", "test": "MBC assay", "details": "Staphylococcus aureus, ATCC25923", "experimental": "as §1, §2, §3"}, "S. aureus ATCC 12601": {"tested_on": "S. aureus ATCC 12601", "test": "MBC assay", "details": "Staphylococcus aureus, ATCC12601", "experimental": "as §1, §2, §3"}, "[5]": {"tested_on": "Staphylococcus cohnii ATCC 29974", "test": "MBC assay", "details": "ATCC29974", "experimental": "as §1, §2, §3"}, "[6]": {"tested_on": "Staphylococcus xylosus ATCC 29971", "test": "MBC assay", "details": "ATCC29971", "experimental": "as §1, §2, §3"}, "[7]": {"tested_on": "S. epidermidis (NCTC 11047)", "test": "MBC assay", "details": "Staphylococcus epidermidis, NCTC11047", "experimental": "as §1, §2, §3"}, "S. aureus CPHL VISA Mu3": {"tested_on": "S. aureus CPHL VISA Mu3", "test": "MBC assay", "details": "Staphylococcus aureus", "experimental": "as §1, §2, §3"}, "S. aureus ATCC 12607": {"tested_on": "S. aureus ATCC 12607", "test": "MBC assay", "details": "Staphylococcus aureus, ATCC12607", "experimental": "as §1, §2, §3"}, "[8]": {"tested_on": "S. aureus CPHL GISA HO41340156", "test": "MBC assay", "details": "Staphylococcus aureus", "experimental": "as §1, §2, §3"}, "[9]": {"tested_on": "Staphylococcus haemolyticus ATCC 29970", "test": "MBC assay", "details": "ATCC29970", "experimental": "as §1, §2, §3"}, "P. granulosum PRP-044": {"tested_on": "P. granulosum PRP-044", "test": "Disc diffusion assay (DDA)", "details": "zone diameter, 200 μg per disc", "experimental": "(§4) The Propionibacterium spp organisms were cultured and maintained on Wilkins-Chalgren Anaerobe Medium (agar and broth) at pH 6.0; cultures were incubated anaerobically at 37° C. for 72 hours.\n(§5) A sterile paper disc was impregnated with a sample of the test compound and a minimum of 30 minutes allowed for the solvents to evaporate as far as possible. The disc was then placed on an agar plate onto which the test micro-organism had been inoculated. The plate was then incubated under the conditions described above, following which it was examined visually for signs of bacterial growth. If the test compound had antimicrobial activity, a circular zone of no growth would be obtained around the disc. The diameter of this zone of “inhibition” was measured using a ProtoCOL™ automated zone sizer (Synbiosis, Cambridge, UK). In general, a greater diameter and/or area of the zone of inhibition indicates a greater antimicrobial activity in the relevant test compound, although other factors such as test compound mobility through the agar gel may also influence the result.\n(§6) The area of the zone of inhibition was calculated from the measured zone diameter (D) using the formula π(D/2)^2."}, "P. granulosum PRP-055": {"tested_on": "P. granulosum PRP-055", "test": "Disc diffusion assay (DDA)", "details": "zone diameter, 200 μg per disc", "experimental": "as §4, §5, §6"}, "P. granulosum PRP-043": {"tested_on": "P. granulosum PRP-043", "test": "Disc diffusion assay (DDA)", "details": "zone diameter, 200 μg per disc", "experimental": "as §4, §5, §6"}, "P. granulosum NCTC 11865": {"tested_on": "P. granulosum NCTC 11865", "test": "Disc diffusion assay (DDA)", "details": "zone diameter, 200 μg per disc", "experimental": "as §4, §5, §6"}, "P. granulosum PRP-005": {"tested_on": "P. granulosum PRP-005", "test": "Disc diffusion assay (DDA)", "details": "zone diameter, 200 μg per disc", "experimental": "as §4, §5, §6"}, "P. avidum ATCC 25577": {"tested_on": "P. avidum ATCC 25577", "test": "Disc diffusion assay (DDA)", "details": "zone diameter, 200 μg per disc", "experimental": "as §4, §5, §6"}}, "note": "Like-named read-outs stand apart in the source and are kept apart here.", "data": [{"smiles": "CC(C)(C)c1cc(O)ccc1O", "note": "[TBHQ, t-butyl hydroquinone]", "values": [{"measurement": "MBC", "setting": "S. aureus ATCC 12606", "result": 7.8, "unit": "µg/mL"}, {"measurement": "MBC", "setting": "S. aureus CPHL VISA Mu50; VISA", "result": 7.8, "unit": "µg/mL"}, {"measurement": "MBC", "setting": "S. aureus ATCC 12600-U", "result": 7.8, "unit": "µg/mL"}, {"measurement": "MBC", "setting": "[1]", "result": 1.95, "unit": "µg/mL"}, {"measurement": "MBC", "setting": "S. aureus ATCC 12604", "result": 7.8, "unit": "µg/mL"}, {"measurement": "MBC", "setting": "S. aureus CPHL EMRSA 17; S. aureus CPHL EMRSA 17 (resistance Met/β-lactams), read-out: MBC", "result": 3.9, "unit": "µg/mL"}, {"measurement": "MBC", "setting": "S. aureus ATCC 12602", "result": 7.8, "unit": "µg/mL"}, {"measurement": "MBC", "setting": "S. aureus ATCC 12605", "result": 3.9, "unit": "µg/mL"}, {"measurement": "MBC", "setting": "[2]", "result": 3.9, "unit": "µg/mL"}, {"measurement": "MBC", "setting": "[3]", "result": 3.9, "unit": "µg/mL"}, {"measurement": "MBC", "setting": "[4]", "result": 7.8, "unit": "µg/mL"}, {"measurement": "MBC", "setting": "S. aureus ATCC 25923", "result": 7.8, "unit": "µg/mL"}, {"measurement": "MBC", "setting": "S. aureus ATCC 12601", "result": 15.6, "unit": "µg/mL"}, {"measurement": "MBC", "setting": "[5]", "result": 7.8, "unit": "µg/mL"}, {"measurement": "MBC", "setting": "[6]; Staphylococcus xylosus", "result": 15.6, "unit": "µg/mL"}, {"measurement": "MBC", "setting": "[7]", "result": 7.8, "unit": "µg/mL"}, {"measurement": "MBC", "setting": "S. aureus CPHL VISA Mu3", "result": 7.8, "unit": "µg/mL"}, {"measurement": "MBC", "setting": "S. aureus ATCC 12607", "result": 3.9, "unit": "µg/mL"}, {"measurement": "MBC", "setting": "[8]", "result": 15.6, "unit": "µg/mL"}, {"measurement": "MBC", "setting": "[9]; Staphylococcus haemolyticus", "result": 7.8, "unit": "µg/mL"}, {"measurement": "DDA", "setting": "P. granulosum PRP-044", "result": "10.70 (±0.65) mm"}, {"measurement": "DDA", "setting": "P. granulosum PRP-055", "result": "13.07 (±0.78) mm"}, {"measurement": "DDA", "setting": "P. granulosum PRP-043", "result": "10.56 (±0.48) mm"}, {"measurement": "DDA", "setting": "P. granulosum NCTC 11865", "result": "11.00 (±0.00) mm"}, {"measurement": "DDA", "setting": "P. granulosum PRP-005", "result": "0.00 (±0.00) mm"}, {"measurement": "DDA", "setting": "P. avidum ATCC 25577", "result": "9.16 (±0.48) mm"}]}, {"smiles": "O=C(OOC(=O)c1ccccc1)c1ccccc1", "note": "[benzoyl peroxide]", "values": [{"measurement": "MBC", "setting": "S. aureus ATCC 12606; S. aureus ATCC 12606, read-out: MBC", "result": 250, "unit": "µg/mL"}, {"measurement": "MBC", "setting": "S. aureus CPHL VISA Mu50; S. aureus CPHL VISA Mu50 (Van intermediate), read-out: MBC", "result": 250, "unit": "µg/mL"}, {"measurement": "MBC", "setting": "S. aureus ATCC 12600-U; S. aureus ATCC 12600-U, read-out: MBC", "result": "> 250", "unit": "µg/mL"}, {"measurement": "MBC", "setting": "[1]", "result": 62.5, "unit": "µg/mL"}, {"measurement": "MBC", "setting": "S. aureus ATCC 12604; S. aureus ATCC 12604, read-out: MBC", "result": 250, "unit": "µg/mL"}, {"measurement": "MBC", "setting": "S. aureus CPHL EMRSA 17", "result": "125 to 250", "unit": "µg/mL"}, {"measurement": "MBC", "setting": "S. aureus ATCC 12602", "result": 125, "unit": "µg/mL"}, {"measurement": "MBC", "setting": "S. aureus ATCC 12605", "result": 250, "unit": "µg/mL"}, {"measurement": "MBC", "setting": "[2]", "result": 250, "unit": "µg/mL"}, {"measurement": "MBC", "setting": "[3]", "result": 250, "unit": "µg/mL"}, {"measurement": "MBC", "setting": "[4]; S. saprophyticus NCTC 7292, read-out: MBC", "result": "> 250", "unit": "µg/mL"}, {"measurement": "MBC", "setting": "S. aureus ATCC 25923; S. aureus ATCC 25923, read-out: MBC", "result": 250, "unit": "µg/mL"}, {"measurement": "MBC", "setting": "S. aureus ATCC 12601; S. aureus ATCC 12601, read-out: MBC", "result": 250, "unit": "µg/mL"}, {"measurement": "MBC", "setting": "[5]", "result": 125, "unit": "µg/mL"}, {"measurement": "MBC", "setting": "[6]; Staphylococcus xylosus ATCC 29971, read-out: MBC", "result": 250, "unit": "µg/mL"}, {"measurement": "MBC", "setting": "[7]; S. epidermidis NCTC 11047, read-out: MBC", "result": 250, "unit": "µg/mL"}, {"measurement": "MBC", "setting": "S. aureus CPHL VISA Mu3", "result": "125 to 250", "unit": "µg/mL"}, {"measurement": "MBC", "setting": "S. aureus ATCC 12607", "result": 250, "unit": "µg/mL"}, {"measurement": "MBC", "setting": "[8]; S. aureus CPHL GISA HO41340156 (Van/Tec intermediate), read-out: MBC", "result": 250, "unit": "µg/mL"}, {"measurement": "MBC", "setting": "[9]; Staphylococcus haemolyticus ATCC 29970, read-out: MBC", "result": 250, "unit": "µg/mL"}, {"measurement": "DDA", "setting": "P. granulosum PRP-044", "result": "29.31 (±0.54) mm"}, {"measurement": "DDA", "setting": "P. granulosum PRP-055", "result": "21.51 (±0.47) mm"}, {"measurement": "DDA", "setting": "P. granulosum PRP-043", "result": "22.48 (±1.19) mm"}, {"measurement": "DDA", "setting": "P. granulosum NCTC 11865", "result": "24.19 (±0.94) mm"}, {"measurement": "DDA", "setting": "P. granulosum PRP-005", "result": "22.95 (±0.64) mm"}, {"measurement": "DDA", "setting": "P. avidum ATCC 25577", "result": "25.83 (±0.95) mm"}]}]}
